In patent US20240336657A1, “G-ALPHA-S PEPTIDE INHIBITORS AND USES THEREOF” (The Regents of the University of California, priority 2021, published 2024):
Positions of bridges follow the written chain, without caps; N, C: chain ends. Non-standard residues stand in square brackets, D forms with d. Residues, ends and D or L forms follow the SMILES beside them. *: point of attachment. NH(CH2CH2O)2(CH2)6Cl = ClCCCCCCOCCOCCN*

Legend:
[1] = test system: HeLa cells stably expressing HaloTag; assay: Chloroalkane penetration assay (CAPA); assay type: in vitro ADME, human
Source text: We first tested the cell permeability of GD20, as peptide-based chemical probes often suffer from poor cell permeability. […] In order to quantitatively evaluate the cell permeability of GD20, we used a recently developed HaloTag-based assay known as a chloroalkane penetration assay (CAPA) (Figure S6I) (Peraro et al., 2018). HeLa cells stably expressing HaloTag localized to the mitochondrial outer membrane were pulsed with chloroalkane-tagged molecules (ct-molecule), washed, chased with chloroalkane-tagged TAMRA fluorophore (ct-TAMRA), and finally analyzed by flow cytometry. A lower ct-TAMRA fluorescent signal indicates competition from a higher cytosolic concentration of ct-molecule. The carboxyl terminus of GD20 (G15) was conjugated with a chloroalkane tag to make ct-GD20 (FIG. 23A).
The cell lines used for CAPA were HeLa cell lines, generated by Chenoweth and co-workers, that stably express HaloTag exclusively in the cytosol (Peraro et al., 2018). Cells were seeded in a 96-well plate the day before the experiment at a density of 4×10^4 cells per well. The day of the experiment the media was aspirated, and 100 μL of cyclic peptide dilutions in DMEM were added to the cells. Plate was incubated for 19.5 h at 37° C. with 5% CO2. […] The cells were then trypsinized, quenched with DMEM, resuspended in PBS, and analyzed using a benchtop flow cytometer (CytoFLEX, Beckman).

GDP-bound Gαs = target: T1, GDP-bound Gαs (Homo sapiens, UniProt P63092); assay: Bio-layer interferometry (BLI) binding kinetics; settings: GDP/Gαs
T1 construct: hexahistidine (N, cleaved yes); made in house; host or cells: Escherichia coli BL21(DE3)
Description: (§1) BLI experiments were performed using an OctetRED384 instrument from ForteBio. All experiments were performed at 25° C. using BLI buffer (10 mM HEPES pH 7.4, 150 mM NaCl, 1 mM MgCl2, 0.05% Tween-20, 0.1% DMSO, 0.2 mM GppNHp or GDP). Cyclic peptides were diluted to a series of concentrations in BLI buffer plus 10 μM Biotin. Assays were conducted in Greiner 384well, black, flat bottom polypropylene plates containing the protein solutions, BLI buffer plus 10 μM Biotin for dissociation, and serial dilutions of cyclic peptides to be tested.
(§2) Biotinylated proteins were immobilized on Streptavidin biosensors by dipping sensors into plate wells containing protein solutions at a concentration of 100-150 nM. Protein loading is around 2-3 nm. Sensors loaded with proteins were moved and dipped into wells with BLI buffer plus 10 μM Biotin to block unlabeled Streptavidin. Association-dissociation cycles of compounds were started by moving and dipping sensors to cyclic peptides dilutions and BLI buffer plus 10 μM Biotin wells alternatively. Association and dissociation times were carefully determined to ensure full association and dissociation.
(§3) Raw kinetic data collected were processed with the Data Analysis software provided by the manufacturer using single reference subtraction in which buffer-only reference was subtracted (For GN13 analysis). Because GD20 analogs have a low level of background binding, we used a double reference subtraction (buffer-only reference and non-protein-loading reference) method to calculate their kinetics values. The resulting data were analyzed based on a 1:1 binding model from which kon and koff values were obtained and then Kd values were calculated.

Gαs [2] = target: T2, Gαs (Homo sapiens, UniProt P63092); assay: GDP dissociation assay ([3H]GDP); assay type: biochemical; set-up: made in house; host or cells: Escherichia coli BL21(DE3)
Description: (§4) Gα proteins were diluted to 400 nM in the EDTA buffer (20 mM HEPES 7.5, 150 mM NaCl, 1 mM EDTA-Na 8.0, 2 mM DTT). [^3H]GDP (1 mCi/mL, 25.2 μM) was added to a final concentration of 1.2 μM, followed by cyclic peptides addition. After incubation at 20° C. for 30 minutes, the same volume of assay buffer ([…] HEPES-Na 7.5, 150 mM NaCl, 2 mM MgCl2, and 1 mM GDP) was added to initiate [^3H]GDP dissociation. At various points, […] was removed and mixed with 390 μL of ice-cold wash buffer (20 mM HEPES 7.5, 150 mM NaCl, 20 mM MgCl2). The mixture was immediately filtered through a mixed cellulose membrane (25 mm, 0.22 μm) held by a microanalysis filter holder (EMD Millipore). The membrane was washed by ice-cold wash buffer (500 μL×3), put in a 6-mL plastic vial and air-dried (room temperature 1.5 h). 5 mL of CytoScint-ES Liquid Scintillation Cocktail was added to each vial. After incubation overnight at room temperature, the vial was used for liquid scintillation counting with a LS 6500 Multi-Purpose Scintillation Counter.
The GDP dissociation curves were fitted by the software GraphPad Prism using the following equation to calculate the dissociation rates (koff): […]
in which “Y” is the radioactivity (Counts per minute) of the sample at time “X” (minutes), and Y0 is the calculated radioactivity of the sample at the time point 0.

Gαi = Gαi (Homo sapiens, UniProt P63096); assay: Nucleotide exchange step (GDP dissociation / GTPγS binding); assay type: biochemical; settings: compared with Gαs
Description: as §4
Gα proteins were diluted to 10 μM with dilution buffer (20 mM HEPES 7.5, 150 mM NaCl, 1 mM MgCl2, 2 mM DTT, and 20 μM GDP) and incubated with 5× stocks of cyclic peptides at room temperature for 2 hours. GTPγS binding was initiated by mixing with the reaction buffer at room temperature (50 nM [35S]GTPγS and 100 μM GTPγS in dilution buffer) at room temperature. […]

GDP-bound Gαi1 = target: T3, GDP-bound Gαi1 (Homo sapiens, UniProt P63096); assay: Bio-layer interferometry (BLI) binding; settings: highest concentration tested
T3 construct: hexahistidine (N, cleaved yes); made in house; host or cells: Escherichia coli BL21(DE3)
Description: as §1, §2, §3

GppNHp-bound Gαi1 = target: T4, GppNHp-bound Gαi1 (Homo sapiens, UniProt P63096); assay: Bio-layer interferometry (BLI) binding; settings: highest concentration tested
T4 construct: hexahistidine (N, cleaved yes); made in house; host or cells: Escherichia coli BL21(DE3)
Description: as §1, §2, §3

GppNHp-bound Gαs = GppNHp-bound Gαs (Homo sapiens, UniProt P63092); assay: Bio-layer interferometry (BLI) binding kinetics; set-up: hexahistidine (N, cleaved yes); made in house; host or cells: Escherichia coli BL21(DE3); settings: highest concentration tested
Description: as §1, §2, §3

Gαs [3] = target: T2, Gαs; assay: GTPγS binding assay ([35S]GTPγS); assay type: biochemical; set-up: made in house; host or cells: Escherichia coli BL21(DE3)
Description: Gα proteins were diluted to 10 μM with dilution buffer (20 mM HEPES 7.5, 150 mM NaCl, 1 mM MgCl2, 2 mM DTT, and 20 μM GDP) and incubated with 5× stocks of cyclic peptides at room temperature for 2 hours. GTPγS binding was initiated by mixing with the reaction buffer at room temperature (50 nM [35S]GTPγS and 100 μM GTPγS in dilution buffer) at room temperature. At various time points, 10 μL of the sample was removed and mixed with 390 μL of ice-cold wash buffer (20 mM HEPES 7.5, 150 mM NaCl, 20 mM MgCl2). The mixture was filtered through a mixed cellulose membrane (25 mm, 0.22 μm). The membrane was washed by ice-cold wash buffer (500 μL×3), put in a 6-mL plastic vial and air-dried (room temperature 1.5 h). 5 mL of CytoScint-ES Liquid Scintillation Cocktail (MP Biomedicals) was added to each vial. After incubation overnight at room temperature, the vial was used for liquid scintillation counting with a LS 6500 Multi-Purpose Scintillation Counter. A standard curve was generated using [35S]GTPγS. The radioactive activity (Counts per minute) of the samples were converted to the GTPγS concentration. The GTPγS binding curves were fitted by the software GraphPad Prism using the following equation to calculate the apparent GTPγS binding rates (kapp): […]
in which “Y” is the concentration of GTPγS that bound to Gα protein at time “X” (minutes).

[4] = target: T5, Biotinylated His/Avi-tagged Gαs used in the RaPID selection, GppNHp-bound (human, UniProt P63092 7-394, biotin on the Avi tag (BirA co-expressed)); assay: RaPID comparison selection: peptide-mRNA-cDNA complexes on Gαs-immobilized streptavidin beads, qPCR and sequencing
T5 construct: Immobilized on streptavidin magnetic beads

[5] = target: T6, Biotinylated Avi-tagged WT Gαs (residues 7-380 of the short isoform of human Gαs), GDP-bound (human, UniProt P63092 7-394, biotin on the Avi tag (BirA)); assay: TR-FRET competition: biotinylated Gαs or Gαi (GDP) against His-Gβγ(C68S)
T6 construct: Loaded with GDP; Same polypeptide as m7, other nucleotide state; also called biotinylated Gαs WT
Description: (§5) Biotinylated avi-Gαs (6-end, WT) and avi-Gαi (FL, WT) were diluted to 32 nM (8×) using assay buffer (1× PBS 7.4, 2 mM DTT, 0.1% BSA, 2 mM MgCl₂, 0.05% Tween plus 0.5 mM GDP), followed by mixing with a same volume of 8× streptavidin XL665 stock (32 nM in the assay buffer). 8× His-Gβ/γ (C68S) stock (16 nM) and 8× anti-6His-Tb cryptate stock (0.4 μg/mL) were added into the Gα/XL665 mixtures. Finally, 2× stocks of cyclic peptides were added with the protein mixtures. After incubation at room temperature for 2 hour at room temperature. […] FRET Signal was calculated as the ratio of [Read B]/[Read A].

[6] = target: T6, Biotinylated Avi-tagged WT Gαs …; assay: TR-FRET competition: biotinylated GDP-bound Gαs WT against His-Gβγ(C68S)
Description: as §5

[7] = target: Biotinylated Avi-tagged WT Gαs (residues 7-380 of the short isoform of human Gαs), GppNHp-bound (human) (UniProt P63092); assay: TR-FRET competition: biotinylated Gαs WT (GppNHp-bound) with His-tagged adenylyl cyclase (VC1/IIC2) as the blocked partner; peptide concentration varied
Biotinylated Avi-tagged WT Gαs (residues 7-380 of the short isoform of human Gαs), GppNHp-bound (human), sequence (P63092 other isoform, or with tags, fused parts or gaps limits assumed): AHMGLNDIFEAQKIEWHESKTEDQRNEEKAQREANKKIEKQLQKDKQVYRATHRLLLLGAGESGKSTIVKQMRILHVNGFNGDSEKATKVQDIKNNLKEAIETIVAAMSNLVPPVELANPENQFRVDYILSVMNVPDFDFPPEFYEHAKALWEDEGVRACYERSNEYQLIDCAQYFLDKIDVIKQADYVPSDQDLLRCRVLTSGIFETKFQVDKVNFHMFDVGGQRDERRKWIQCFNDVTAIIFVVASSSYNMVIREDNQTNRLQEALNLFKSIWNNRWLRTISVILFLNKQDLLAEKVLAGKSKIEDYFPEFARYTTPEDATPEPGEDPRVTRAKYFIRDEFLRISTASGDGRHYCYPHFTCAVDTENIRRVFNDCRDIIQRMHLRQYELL

T2 sequence (P63092 1-380 isoform P63092-2): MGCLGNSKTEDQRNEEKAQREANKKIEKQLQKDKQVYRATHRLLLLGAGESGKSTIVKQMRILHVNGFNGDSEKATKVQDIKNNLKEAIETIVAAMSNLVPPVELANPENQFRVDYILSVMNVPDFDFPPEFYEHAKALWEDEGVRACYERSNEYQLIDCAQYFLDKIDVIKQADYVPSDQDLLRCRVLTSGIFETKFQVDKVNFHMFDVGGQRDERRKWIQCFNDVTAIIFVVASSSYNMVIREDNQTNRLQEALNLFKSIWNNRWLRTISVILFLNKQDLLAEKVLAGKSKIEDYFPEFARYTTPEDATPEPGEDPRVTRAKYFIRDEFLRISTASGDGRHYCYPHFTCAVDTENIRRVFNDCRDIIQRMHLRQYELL
T5 sequence (P63092 other isoform, or with tags, fused parts or gaps limits assumed): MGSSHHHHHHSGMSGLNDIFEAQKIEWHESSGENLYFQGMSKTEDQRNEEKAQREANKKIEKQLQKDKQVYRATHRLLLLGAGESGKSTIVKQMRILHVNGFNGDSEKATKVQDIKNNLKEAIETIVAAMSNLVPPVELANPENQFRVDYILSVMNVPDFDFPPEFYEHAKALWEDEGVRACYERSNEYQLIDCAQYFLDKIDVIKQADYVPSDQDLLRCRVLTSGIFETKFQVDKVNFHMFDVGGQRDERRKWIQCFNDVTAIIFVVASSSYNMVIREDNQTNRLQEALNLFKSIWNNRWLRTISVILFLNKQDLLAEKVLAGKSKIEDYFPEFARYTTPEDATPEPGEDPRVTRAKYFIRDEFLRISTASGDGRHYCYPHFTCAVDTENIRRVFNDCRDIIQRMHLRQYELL
T3 sequence (P63096 with tags, fused parts or gaps): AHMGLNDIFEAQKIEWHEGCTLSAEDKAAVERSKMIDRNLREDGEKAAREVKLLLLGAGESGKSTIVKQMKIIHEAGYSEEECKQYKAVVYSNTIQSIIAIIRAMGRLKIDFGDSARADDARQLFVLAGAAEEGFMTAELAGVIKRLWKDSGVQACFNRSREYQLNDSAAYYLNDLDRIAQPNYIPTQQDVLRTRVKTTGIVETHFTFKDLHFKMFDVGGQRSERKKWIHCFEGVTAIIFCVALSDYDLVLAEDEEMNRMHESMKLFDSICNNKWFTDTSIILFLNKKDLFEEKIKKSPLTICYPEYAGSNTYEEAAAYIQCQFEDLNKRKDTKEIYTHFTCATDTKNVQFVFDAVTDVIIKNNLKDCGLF
T4 sequence (P63096 with tags, fused parts or gaps): as above
Gαi, sequence (P63096 whole entry): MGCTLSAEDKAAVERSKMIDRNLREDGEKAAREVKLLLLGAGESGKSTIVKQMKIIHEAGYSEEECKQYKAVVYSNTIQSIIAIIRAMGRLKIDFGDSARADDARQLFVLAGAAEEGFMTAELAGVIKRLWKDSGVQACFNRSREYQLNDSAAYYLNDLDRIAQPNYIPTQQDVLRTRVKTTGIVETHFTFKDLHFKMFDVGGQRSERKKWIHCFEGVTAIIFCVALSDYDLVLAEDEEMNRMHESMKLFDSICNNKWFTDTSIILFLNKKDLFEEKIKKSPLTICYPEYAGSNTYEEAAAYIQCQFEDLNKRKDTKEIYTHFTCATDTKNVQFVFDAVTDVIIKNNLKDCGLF

CC[C@H](C)[C@@H]1NC(=O)[C@H](CC(C)C)NC(=O)[C@@H](Cc2ccc(O)cc2)NC(=O)CSC[C@@H](C(=O)NCC(=O)NCCOCCOCCCCCCCl)NC(=O)[C@@H]2CCCN2C(=O)[C@H](CC(C)C)NC(=O)[C@H](CC(N)=O)NC(=O)[C@H](Cc2ccccc2)NC(=O)[C@H](C)NC(=O)[C@H](Cc2c[nH]c3ccccc23)NC(=O)[C@H](CCC(N)=O)NC(=O)[C@H](CCCNC(=N)N)NC(=O)[C@H](Cc2ccccc2)NC(=O)[C@H]([C@@H](C)O)NC1=O [ct-GD20] ({CH2CO}-[dY]LITFRQWAFNLPCG-{NH(CH2CH2O)2(CH2)6Cl}; thioether N-14)
cell permeability (CAPA) [1]: cell permeable

CC[C@H](C)[C@@H]1NC(=O)[C@H](CC(C)C)NC(=O)[C@@H](Cc2ccc(O)cc2)NC(=O)CSC[C@@H](C(=O)NCC(N)=O)NC(=O)[C@@H]2CCCN2C(=O)[C@H](CC(C)C)NC(=O)[C@H](CC(N)=O)NC(=O)[C@H](Cc2ccccc2)NC(=O)[C@H](C)NC(=O)[C@H](Cc2c[nH]c3ccccc23)NC(=O)[C@H](CCC(N)=O)NC(=O)[C@H](CCCNC(=N)N)NC(=O)[C@H](Cc2ccccc2)NC(=O)[C@H]([C@@H](C)O)NC1=O [GD20] ({CH2CO}-[dY]LITFRQWAFNLPCG-NH2; thioether N-14)
Kd (GDP-bound Gαs): 31.4 ± 0.7 nM
koff (GDP-bound Gαs): 0.00343 s⁻¹
kon (GDP-bound Gαs): 109000 M⁻¹ s⁻¹
effect on Gαs GDP dissociation rates (koff) (Gαs [2]): drastically reducing
sensitivity of the nucleotide exchange step of Gαi (Gαi): much less sensitive
binding to GDP-bound Gαi1 (GDP-bound Gαi1): no detectable binding
binding to GppNHp-bound Gαi1 (GppNHp-bound Gαi1): no detectable binding
binding to GppNHp-bound Gαs (GppNHp-bound Gαs): no detectable binding
effect on the apparent rate of GTPγS binding (kapp) to Gαs (Gαs [3]): drastically reducing

B1: GN15 (peptide)
peptide: {CH2CO}-[dY]KYWDFDNFQELYCG-NH2
modifications: thioether N-14
SMILES: CC(C)C[C@@H]1NC(=O)[C@H](CCC(=O)O)NC(=O)[C@H](CCC(N)=O)NC(=O)[C@H](Cc2ccccc2)NC(=O)[C@H](CC(N)=O)NC(=O)[C@H](CC(=O)O)NC(=O)[C@H](Cc2ccccc2)NC(=O)[C@H](CC(=O)O)NC(=O)[C@H](Cc2c[nH]c3ccccc23)NC(=O)[C@H](Cc2ccc(O)cc2)NC(=O)[C@H](CCCCN)NC(=O)[C@@H](Cc2ccc(O)cc2)NC(=O)CSC[C@@H](C(=O)NCC(N)=O)NC(=O)[C@H](Cc2ccc(O)cc2)NC1=O
fold selectivity for GppNHp-bound over GDP-bound Gαs [4]: > 100 fold

B2: GD20-F10L (peptide)
peptide: {CH2CO}-[dY]LITFRQWALNLPCG-NH2
modifications: thioether N-14
SMILES: CC[C@H](C)[C@@H]1NC(=O)[C@H](CC(C)C)NC(=O)[C@@H](Cc2ccc(O)cc2)NC(=O)CSC[C@@H](C(=O)NCC(N)=O)NC(=O)[C@@H]2CCCN2C(=O)[C@H](CC(C)C)NC(=O)[C@H](CC(N)=O)NC(=O)[C@H](CC(C)C)NC(=O)[C@H](C)NC(=O)[C@H](Cc2c[nH]c3ccccc23)NC(=O)[C@H](CCC(N)=O)NC(=O)[C@H](CCCNC(=N)N)NC(=O)[C@H](Cc2ccccc2)NC(=O)[C@H]([C@@H](C)O)NC1=O
notes: Single substitution F10L of GD20; also called cell permeable GD20 analog F10L
fold selectivity for Gαs over Gαi [5]: 100 fold
IC50 [6]: 14 nM

B3: GN10 (peptide)
peptide: Ac-[dY]HEQFDNFCDLWCG-NH2
modifications: thioether (positions not given here); also: thioether partner Cys9 or Cys13 not settled
fold selectivity for GppNHp-bound over GDP-bound Gαs [4]: > 100 fold
IC50 (read off the curve) [7]: 200 nM
